In patent publication US9296704B2, “Substituted pyrimidines as protein kinase inhibitors” (CELGENE AVILOMICS RESEARCH, INC., priority 2007, dated 2016) one finds inhibition and IC50 data, which are given here for 18 compounds.

Where only a bound is given, the exact number is not on record here.

One experiment concerns the target ErbB1 (Homo sapiens, UniProt P00533). Nature of the experiment: Z'-LYTE biochemical assay, ErbB1 kinase inhibition. Conditions: @ 1 μM. How it is done: Compounds of the present invention were assayed as inhibitors of one or more of ErbB1, ErbB2, and/or ErbB4 in a manner substantially similar to the method described by Invitrogen Corp (Invitrogen Corporation, 1600 Faraday Avenue, Carlsbad, Calif., CA; http://www.invitrogen.com/downloads/Z-LYTE_Brochure—1205.pdf) using the Z′-LYTE™ biochemical assay procedure or similar biochemical assay. The Z′-LYTE™ biochemical assay employs a fluorescence-based, coupled-enzyme format and is based on the differential sensitivity of phosphorylated and non-phosphorylated peptides to proteolytic cleavage.

A further experiment concerns the target T1, EGFR (WT) (Homo sapiens, UniProt P00533).
T1 construct: purchased Invitrogen PV3872
Nature of the experiment: Omnia continuous-read kinase assay, EGFR (WT). As to conditions: read-out: EGFR inhibtion. Format: biochemical. The source says: (§1) The protocol below describes continuous-read kinase assays to measure inherent potency of compounds against active forms of EGFR (WT) and EGFR (T790M/L858R) enzymes. The mechanics of the assay platform are best described by the vendor (Invitrogen, Carlsbad, Calif.) on their website at the following URL: http://www.invitrogen.com/content.cfm?pageid=11338 or http://www.invitrogen.com/site/us/en/home/Products-and-Services/Applications/Drug-Discovery/Target-and-Lead-Identification-and-Validation/KinaseBiology/KB-Misc/Biochemical-Assays/Omnia-Kinase-Assays.html.
(§2) Briefly, 10× stocks of EGFR-WT (PV3872) from Invitrogen and EGFR-T790M/L858R (40350) from BPS Bioscience, San Diego, Calif., 1.13×ATP (AS001A) and appropriate Tyr-Sox conjugated peptide substrates (KCZI001) were prepared in 1× kinase reaction buffer consisting of 20 mM Tris, pH 7.5, 5 mM MgCl2, 1 mM EGTA, 5 mM β-glycerophosphate, 5% glycerol (10× stock, KB002A) and 0.2 mM DTT (DS001A). 5 μL of each enzyme were pre-incubated in a Corning (#3574) 384-well, white, non-binding surface microtiter plate (Corning, NY) for 30 min. at 27° C. with a 0.5 μL volume of 50% DMSO and serially diluted compounds prepared in 50% DMSO. Kinase reactions were started with the addition of 45 μL of the ATP/Tyr-Sox peptide substrate mix and monitored every 30-90 seconds for 60 minutes at λex360/λem485 in a Synergy^4 plate reader from BioTek (Winooski, Vt.). At the conclusion of each assay, progress curves from each well were examined for linear reaction kinetics and fit statistics (R^2, 95% confidence interval, absolute sum of squares). Initial velocity (0 minutes to ˜30 minutes) from each reaction was determined from the slope of a plot of relative fluorescence units vs time (minutes) and then plotted against inhibitor concentration to estimate IC50 from log [Inhibitor] vs Response, Variable Slope model in GraphPad Prism from GraphPad Software (San Diego, Calif.).
(§3) The EGFR-WT- and EGFR T790M/L858R-modified optimized reagent conditions are: • [EGFR-WT]=5 nM, [ATP]=[…], [Y12-Sox]=[…]; and [EGFR-T790M/L858R]=3 nM, [ATP]=[…], [Y12-Sox]=[…].

The next experiment has as its target T2, EGFR (T790M/L858R) (Homo sapiens, UniProt P00533, L858R/T790M).
T2 construct: purchased BPS Bioscience 40350
Nature of the experiment: Omnia continuous-read kinase assay, EGFR (T790M/L858R). The experiment is classed as biochemical. As to conditions: read-out: EGFR (T790M/L858R) inhibiton.
Source text: as §1, §2, §3

A further experiment concerns the target T3, JAK3 (Homo sapiens, UniProt P52333).
T3 sequence (P52333 1-1124): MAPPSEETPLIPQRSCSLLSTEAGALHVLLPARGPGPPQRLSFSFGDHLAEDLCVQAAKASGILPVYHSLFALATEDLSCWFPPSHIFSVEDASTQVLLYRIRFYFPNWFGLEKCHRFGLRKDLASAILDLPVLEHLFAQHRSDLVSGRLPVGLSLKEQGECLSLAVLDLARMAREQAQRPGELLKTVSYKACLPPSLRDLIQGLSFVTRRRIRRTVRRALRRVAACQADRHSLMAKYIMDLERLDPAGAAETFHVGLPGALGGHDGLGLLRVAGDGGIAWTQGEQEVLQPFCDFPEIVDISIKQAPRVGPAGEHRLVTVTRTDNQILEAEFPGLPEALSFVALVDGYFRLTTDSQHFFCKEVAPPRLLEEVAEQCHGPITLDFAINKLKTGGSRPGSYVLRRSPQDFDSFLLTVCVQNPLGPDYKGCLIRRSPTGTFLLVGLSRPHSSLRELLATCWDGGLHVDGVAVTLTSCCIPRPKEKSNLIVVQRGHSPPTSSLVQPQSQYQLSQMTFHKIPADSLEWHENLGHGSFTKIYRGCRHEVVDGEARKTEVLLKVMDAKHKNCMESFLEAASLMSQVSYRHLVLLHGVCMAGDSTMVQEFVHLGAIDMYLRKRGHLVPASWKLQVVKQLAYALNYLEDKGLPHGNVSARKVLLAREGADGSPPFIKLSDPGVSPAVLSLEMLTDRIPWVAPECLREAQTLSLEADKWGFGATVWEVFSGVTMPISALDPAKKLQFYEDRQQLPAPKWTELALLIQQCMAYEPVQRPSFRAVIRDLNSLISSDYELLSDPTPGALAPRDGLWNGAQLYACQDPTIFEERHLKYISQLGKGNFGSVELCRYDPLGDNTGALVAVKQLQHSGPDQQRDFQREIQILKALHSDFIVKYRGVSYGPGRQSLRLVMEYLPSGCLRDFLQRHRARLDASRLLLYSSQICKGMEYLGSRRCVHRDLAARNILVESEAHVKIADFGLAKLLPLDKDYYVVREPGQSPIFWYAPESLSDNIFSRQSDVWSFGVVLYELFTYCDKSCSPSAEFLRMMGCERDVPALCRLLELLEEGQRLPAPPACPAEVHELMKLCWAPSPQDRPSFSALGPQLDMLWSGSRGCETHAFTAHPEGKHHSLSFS
Nature of the experiment: Omnia assay for potency against JAK3. Format: biochemical. Conditions: read-out: JAK3 Inhibition.
Source text: as §1, §2
The Omnia Assay Protocol for potency assessment against JAK3 is performed in a substantially similar manner as that described in Example 25 above except that the modified JAK3-optimized reagent conditions are: • [JAK3]=5 nM, [ATP]=5 μM, [Y12-Sox]=5 μM (ATP KMapp ˜[…]).

The target of a further experiment is BTK (Homo sapiens, UniProt Q06187). Nature of the experiment: Omnia assay for potency against BTK. Format: biochemical. Conditions: read-out: BTK Inhibition.
Chain of BTK (Q06187 whole entry): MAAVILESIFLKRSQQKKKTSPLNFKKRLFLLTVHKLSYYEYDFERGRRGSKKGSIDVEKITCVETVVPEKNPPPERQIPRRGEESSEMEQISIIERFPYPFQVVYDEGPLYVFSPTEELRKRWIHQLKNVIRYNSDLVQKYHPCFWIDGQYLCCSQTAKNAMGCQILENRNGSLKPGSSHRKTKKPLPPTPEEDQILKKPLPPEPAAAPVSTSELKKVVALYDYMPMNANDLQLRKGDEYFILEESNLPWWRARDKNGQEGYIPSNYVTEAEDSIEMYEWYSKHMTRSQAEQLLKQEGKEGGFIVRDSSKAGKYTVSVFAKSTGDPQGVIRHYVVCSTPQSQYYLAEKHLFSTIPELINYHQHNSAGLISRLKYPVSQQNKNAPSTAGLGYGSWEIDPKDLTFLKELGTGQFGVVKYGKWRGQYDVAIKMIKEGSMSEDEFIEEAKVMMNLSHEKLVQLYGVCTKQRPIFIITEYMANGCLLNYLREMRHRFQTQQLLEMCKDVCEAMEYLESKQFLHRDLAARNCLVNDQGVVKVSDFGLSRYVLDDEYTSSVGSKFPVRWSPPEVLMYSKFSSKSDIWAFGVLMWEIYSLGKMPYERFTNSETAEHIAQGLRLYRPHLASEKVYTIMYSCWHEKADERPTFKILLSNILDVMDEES
Source text: as §1, §2
The Omnia Assay Protocol for potency assessment against BTK is performed in a substantially similar manner as that described in Example 25 above except that the modified BTK-optimized reagent conditions are: • [BTK]=5 nM, [ATP]=[…], [Y5-Sox]=[…] (ATP KMapp ˜[…]).

T1 sequence (P00533 25-1210): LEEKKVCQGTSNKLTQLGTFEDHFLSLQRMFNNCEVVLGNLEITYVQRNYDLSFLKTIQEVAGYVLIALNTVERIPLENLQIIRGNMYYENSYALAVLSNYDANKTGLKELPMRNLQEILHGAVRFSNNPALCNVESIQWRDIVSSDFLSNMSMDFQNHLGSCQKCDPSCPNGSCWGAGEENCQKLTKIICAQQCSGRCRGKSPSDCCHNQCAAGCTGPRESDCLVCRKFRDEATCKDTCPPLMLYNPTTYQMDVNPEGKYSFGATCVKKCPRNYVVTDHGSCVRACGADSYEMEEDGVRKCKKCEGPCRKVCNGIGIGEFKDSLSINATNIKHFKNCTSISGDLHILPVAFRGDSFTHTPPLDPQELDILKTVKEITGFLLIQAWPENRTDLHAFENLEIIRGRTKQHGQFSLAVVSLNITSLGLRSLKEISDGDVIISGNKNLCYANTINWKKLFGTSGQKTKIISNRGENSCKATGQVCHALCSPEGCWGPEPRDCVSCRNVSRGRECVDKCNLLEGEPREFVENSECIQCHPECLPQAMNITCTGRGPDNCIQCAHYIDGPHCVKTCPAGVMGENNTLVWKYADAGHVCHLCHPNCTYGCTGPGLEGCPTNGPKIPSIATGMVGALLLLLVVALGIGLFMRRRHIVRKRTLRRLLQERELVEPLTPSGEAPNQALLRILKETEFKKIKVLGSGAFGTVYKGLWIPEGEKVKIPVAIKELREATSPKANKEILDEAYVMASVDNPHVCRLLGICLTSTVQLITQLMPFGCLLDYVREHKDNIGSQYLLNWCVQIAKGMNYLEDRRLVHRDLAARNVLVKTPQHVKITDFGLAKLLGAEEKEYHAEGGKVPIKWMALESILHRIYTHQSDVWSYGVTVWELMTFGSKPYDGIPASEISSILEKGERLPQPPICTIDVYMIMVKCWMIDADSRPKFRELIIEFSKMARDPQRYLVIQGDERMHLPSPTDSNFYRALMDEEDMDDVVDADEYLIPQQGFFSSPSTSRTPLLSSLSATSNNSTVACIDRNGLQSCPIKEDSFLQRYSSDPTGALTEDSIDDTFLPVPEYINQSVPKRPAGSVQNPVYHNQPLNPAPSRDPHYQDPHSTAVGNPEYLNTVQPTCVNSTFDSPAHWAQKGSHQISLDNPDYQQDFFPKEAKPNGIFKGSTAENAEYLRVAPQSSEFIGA
T2 sequence (P00533 25-1210 T790M/L858R): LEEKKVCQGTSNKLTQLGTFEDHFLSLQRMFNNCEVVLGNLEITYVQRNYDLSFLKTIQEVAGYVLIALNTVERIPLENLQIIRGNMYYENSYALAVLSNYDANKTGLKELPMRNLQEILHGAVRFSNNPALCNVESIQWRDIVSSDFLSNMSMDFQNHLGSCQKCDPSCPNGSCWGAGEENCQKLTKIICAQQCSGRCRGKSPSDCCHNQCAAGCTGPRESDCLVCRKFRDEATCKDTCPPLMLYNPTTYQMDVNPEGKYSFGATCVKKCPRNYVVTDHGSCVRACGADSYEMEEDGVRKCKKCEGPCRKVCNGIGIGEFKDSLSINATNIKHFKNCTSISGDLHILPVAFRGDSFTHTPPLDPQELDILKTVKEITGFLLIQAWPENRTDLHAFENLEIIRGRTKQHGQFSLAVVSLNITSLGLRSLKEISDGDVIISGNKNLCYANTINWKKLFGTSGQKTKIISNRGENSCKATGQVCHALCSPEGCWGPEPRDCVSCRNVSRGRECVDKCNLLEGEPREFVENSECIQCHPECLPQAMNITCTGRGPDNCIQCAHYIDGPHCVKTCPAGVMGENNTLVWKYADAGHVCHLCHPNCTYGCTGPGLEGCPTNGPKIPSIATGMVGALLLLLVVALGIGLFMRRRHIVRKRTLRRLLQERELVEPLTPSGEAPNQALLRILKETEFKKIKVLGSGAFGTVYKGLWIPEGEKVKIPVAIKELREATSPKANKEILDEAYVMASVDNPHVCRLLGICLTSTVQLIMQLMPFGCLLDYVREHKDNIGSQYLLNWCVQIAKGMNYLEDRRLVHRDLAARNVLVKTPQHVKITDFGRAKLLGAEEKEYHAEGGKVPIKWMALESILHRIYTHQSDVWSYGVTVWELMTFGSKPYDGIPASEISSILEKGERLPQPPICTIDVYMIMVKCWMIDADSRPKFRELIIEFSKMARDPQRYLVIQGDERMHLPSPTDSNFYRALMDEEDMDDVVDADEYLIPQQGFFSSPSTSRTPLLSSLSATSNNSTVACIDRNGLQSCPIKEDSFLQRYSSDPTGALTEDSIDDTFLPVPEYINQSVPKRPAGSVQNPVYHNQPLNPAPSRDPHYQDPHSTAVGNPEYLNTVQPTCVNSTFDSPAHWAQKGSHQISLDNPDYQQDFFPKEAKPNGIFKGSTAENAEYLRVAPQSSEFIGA
Chain of ErbB1 (P00533 25-1210): as the sequence (P00533 25-1210) above

In general, inhibition refers to the percentage by which the read-out fell short of the control. As to `C#Cc1cccc(Nc2cc(Nc3cccc(C#C)c3)ncn2)c1` [I-11, N^4,N^6-bis(3-ethynylphenyl)pyrimidine-4,6-diamine], at ErbB1, 1 µM produced 79% inhibition. Further, the IC50 at EGFR (WT) was 0.01 to 0.1 µM; on EGFR (T790M/L858R), ≥ 10 µM; on JAK3 it was ≥ 10 µM; on BTK it was ≥ 10 µM.
Consider `CN(C)C/C=C/C(=O)Nc1cccc(Nc2cc(Nc3ccc(OCc4cccc(F)c4)c(Cl)c3)ncn2)c1` [I-46], for which the IC50 on EGFR (WT) was ≤ 0.01 µM; at EGFR (T790M/L858R), ≤ 0.01 µM; at JAK3, 1 to 10 µM; at BTK it was 0.1 to 1 µM.
Turning to `N#CC1(C(=O)Nc2cccc(Nc3cc(Nc4ccc(F)c(Cl)c4)ncn3)c2)CC1` [I-47, N-[3-(6-{3-chloro-4-fluorophenylamino}pyrimidin-4-yl)amino]phenyl-1-cyanocyclopropanecarboxamide], the IC50 was ≤ 0.01 µM on EGFR (WT), ≥ 10 µM on EGFR (T790M/L858R), ≥ 10 µM on JAK3 and ≥ 10 µM at BTK.
Regarding `CN(C)C/C=C/C(=O)N(C)c1cccc(Nc2cc(Nc3ccc(F)c(Cl)c3)ncn2)c1` [I-48], the IC50 was 0.1 to 1 µM at EGFR (WT), 0.1 to 1 µM at EGFR (T790M/L858R), ≥ 10 µM at JAK3 and 0.01 to 0.1 µM at BTK.
For the compound `O=C(CCl)Nc1cccc(Nc2cc(Nc3ccc(F)c(Cl)c3)ncn2)c1` [I-49, 2-chloro-N-{3-[6-(3-chloro-4-fluorophenylamino)-pyrimidin-4-ylamino]-phenyl}-acetamide], the IC50 on EGFR (WT), at EGFR (T790M/L858R), at JAK3 and on BTK was ≤ 0.01 µM in each case.
As for `CC(Cl)C(=O)Nc1cccc(Nc2cc(Nc3ccc(F)c(Cl)c3)ncn2)c1` (stereo not shown) [I-50)], the IC50 on EGFR (WT) was ≤ 0.01 µM; at EGFR (T790M/L858R) it was 0.01 to 0.1 µM.
Take `O=C(Nc1cccc(Nc2cc(Nc3ccc(F)c(Cl)c3)ncn2)c1)C1(C(F)(F)F)CC1` [I-51, N-[3-(6-{3-chloro-4-fluorophenyl}aminopyrimidin-4-yl)aminophenyl]-1-trifluoromethylcyclopropanecarboxamide]: the IC50 is ≤ 0.01 µM on EGFR (WT), 1 to 10 µM on EGFR (T790M/L858R), ≥ 10 µM on JAK3 and ≥ 10 µM on BTK.
Consider `C=CC(=O)N(C)c1cccc(Nc2cc(Nc3ccc(F)c(Cl)c3)ncn2)c1` [I-53, N-3-[6-(3-chloro-4-fluorophenylamino)pyrimidin-4-yl]aminophenyl-N-methyl-2-propenamide], for which the IC50 fell in the range of 0.01 to 0.1 µM on EGFR (WT), 0.1 to 1 µM on EGFR (T790M/L858R), 0.1 to 1 µM on JAK3 and 0.01 to 0.1 µM at BTK.
Consider `Cc1ccc(NC(=O)/C=C/CN(C)C)cc1Nc1cc(Nc2ccc(F)c(Cl)c2)ncn1` [I-54, (E)-N-[3-(6-{3-Chloro-4-fluorophenyl}amino-pyrimidin-4-ylamino)-4-methylphenyl]-4-(dimethylamino)but-2-enamide], for which the IC50 at EGFR (WT) is ≤ 0.01 µM; on EGFR (T790M/L858R), ≤ 0.01 µM; on JAK3 it was 1 to 10 µM; at BTK, 0.1 to 1 µM.
Turning to `C=CC(=O)Nc1cccc(Nc2cc(Nc3ccc(Br)cc3F)ncn2)c1` [I-55], the IC50 on EGFR (WT) is ≤ 0.01 µM; on EGFR (T790M/L858R) it was ≤ 0.01 µM; at JAK3, 0.01 to 0.1 µM; on BTK, 0.01 to 0.1 µM.
Turning to `O=C(/C=C/CN1CCCC1)Nc1cccc(Nc2cc(Nc3ccc(F)c(Cl)c3)ncn2)c1` [I-56], the IC50 is ≤ 0.01 µM on EGFR (WT), ≤ 0.01 µM at EGFR (T790M/L858R), 0.01 to 0.1 µM at JAK3 and 0.01 to 0.1 µM at BTK.
Turning to `Cc1cccc(Nc2cc(Nc3cccc(NC(=O)/C=C/CN4CCNCC4)c3)ncn2)c1` [I-57, (E)-N-3-(6-[3-methylphenyl]aminopyrimidin-4-yl)aminophenyl-4-piperazinyl-2-butenamide], the IC50 at EGFR (T790M/L858R) is 0.1 to 1 µM; on JAK3, ≥ 10 µM; at BTK, 1 to 10 µM.
For `C#CCN(C)C/C=C/C(=O)Nc1cccc(Nc2cc(Nc3cccc(C)c3)ncn2)c1` [I-58, (E)-N-3-(6-[3-methylphenyl]aminopyrimidin-4-yl)aminophenyl-4-(methyl-prop-2-ynyl)amino-2-butenamide], the IC50 was 0.1 to 1 µM on EGFR (T790M/L858R), 0.1 to 1 µM at JAK3 and 1 to 10 µM on BTK.
As to `COc1ccc(NC(=O)/C=C/CN(C)C)cc1Nc1cc(Nc2ccc(F)c(Cl)c2)ncn1` [I-59], the IC50 at EGFR (WT) is ≤ 0.01 µM; on EGFR (T790M/L858R) it was ≤ 0.01 µM; at JAK3, 1 to 10 µM; at BTK it was 0.1 to 1 µM.
Take `CC(=O)N1CCN(C/C=C/C(=O)Nc2cccc(Nc3cc(Nc4cccc(C)c4)ncn3)c2)CC1` [I-60, (E)-N-3-(6-[3-methylphenylamino]-pyrimidin-4-yl)aminophenyl-4-(4-acetylpiperazin-1yl)-2-butenamide]: the IC50 at EGFR (WT) lay in the range of 1 to 10 µM; at EGFR (T790M/L858R), 0.1 to 1 µM; at JAK3, 1 to 10 µM; at BTK it was 1 to 10 µM.
As for `[2H]C([2H])([2H])N(C/C=C/C(=O)Nc1cccc(Nc2cc(Nc3ccc(F)c(Cl)c3)ncn2)c1)C([2H])([2H])[2H]` [I-61], the IC50 at EGFR (T790M/L858R) is ≤ 0.01 µM; at JAK3, 0.01 to 0.1 µM; on BTK, 0.01 to 0.1 µM.
For the compound `C=CC(=O)Nc1cccc(Nc2cc(Nc3ccccc3)ncn2)c1` [I-67, N-3-[6-(phenylamino)-pyrimidin-4-yl]aminophenylpropenamide], the IC50 at EGFR (WT) was ≤ 0.01 µM; on EGFR (T790M/L858R), ≤ 0.01 µM; on JAK3, ≤ 0.01 µM; on BTK it was 0.01 to 0.1 µM.
With `C=CC(=O)N1CCCC(Nc2cc(Nc3ccc(Oc4ccccc4)cc3)ncn2)C1` (stereo not shown) [I-86, 1-(3-(6-(4-phenoxyphenylamino)pyrimidin-4-ylamino)piperidin-1-yl)prop-2-en-1one], the results for the IC50 on EGFR (WT), on JAK3 and on BTK were 0.01 to 0.1 µM, ≥ 10 µM and 0.01 to 0.1 µM, respectively.
